Assay results reported in PubChem BioAssay (NCI).
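The compound was tested at five concentrations on cells cultured in 96-well plates, with a 48-hour exposure period. TGI marks complete inhibition of growth.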

How the values were obtained:
Test in all cases: inhibition of tumour cell growth, NCI panel, 48 h
[1] = tested on: 786-0 renal
[2] = tested on: A498 renal
[3] = tested on: A549 NSCLC
[4] = tested on: ACHN renal
[5] = tested on: CAKI-1 renal
[6] = tested on: CCRF-CEM leukemia
[7] = tested on: COLO 205 colon
[8] = tested on: DU-145 prostate
[9] = tested on: EKVX NSCLC
[10] = tested on: HCC-2998 colon
[11] = tested on: HCT-116 colon
[12] = tested on: HCT-15 colon
[13] = tested on: HOP-62 NSCLC
[14] = tested on: HOP-92 NSCLC
[15] = tested on: HS 578T breast
[16] = tested on: HT29 colon
[17] = tested on: IGROV1 ovarian
[18] = tested on: K-562 leukemia
[19] = tested on: KM12 colon
[20] = tested on: M14 melanoma
[21] = tested on: MALME-3M melanoma
[22] = tested on: MCF7 breast
[23] = tested on: MDA-MB-231 breast
[24] = tested on: MDA-MB-435
[25] = tested on: MDA-N
[26] = tested on: MOLT-4 leukemia
[27] = tested on: NCI-H23 lung
[28] = tested on: NCI-H460 lung
[29] = tested on: NCI-H522 lung
[30] = tested on: NCI/ADR-RES ovarian
[31] = tested on: OVCAR-3 ovarian
[32] = tested on: OVCAR-4 ovarian
[33] = tested on: OVCAR-5 ovarian
[34] = tested on: PC-3 prostate
[35] = tested on: RPMI-8226 leukemia
[36] = tested on: RXF 393 renal
[37] = tested on: SF-295 CNS
[38] = tested on: SK-MEL-2 melanoma
[39] = tested on: SK-MEL-28 melanoma
[40] = tested on: SK-MEL-5 melanoma
[41] = tested on: SK-OV-3 ovarian
[42] = tested on: SNB-19 CNS
[43] = tested on: SR leukemia
[44] = tested on: SW-620 colon
[45] = tested on: U251 CNS
[46] = tested on: UACC-257 melanoma
[47] = tested on: UACC-62 melanoma
[48] = tested on: UO-31 renal
[49] = tested on: BT-549 breast
[50] = tested on: LOX IMVI melanoma
[51] = tested on: NCI-H226 lung
[52] = tested on: OVCAR-8 ovarian
[53] = tested on: SF-268 CNS
[54] = tested on: SF-539 CNS
[55] = tested on: SN12C renal
[56] = tested on: SNB-75 CNS
[57] = tested on: TK-10 renal
[58] = tested on: HL-60(TB) leukemia

COc1ccc(C(=O)NCCC2CN(S(=O)(=O)C(F)(F)F)c3ccccc32)c(OC)c1 (stereo not drawn)
TGI [1]: > 100 µM | TGI [2]: > 100 µM | TGI [3]: > 100 µM | TGI [4]: > 100 µM | TGI [5]: > 100 µM | TGI [6]: 70.3 µM | TGI [7]: > 100 µM | TGI [8]: > 100 µM | TGI [9]: > 100 µM | TGI [10]: > 100 µM | TGI [11]: > 100 µM | TGI [12]: > 100 µM | TGI [13]: > 100 µM | TGI [14]: > 100 µM | TGI [15]: > 100 µM | TGI [16]: 73.8 µM | TGI [17]: > 100 µM | TGI [18]: > 100 µM | TGI [19]: 71.3 µM | TGI [20]: > 100 µM | TGI [21]: 35.3 µM | TGI [22]: > 100 µM | TGI [23]: > 100 µM | TGI [24]: > 100 µM | TGI [25]: > 100 µM | TGI [26]: > 100 µM | TGI [27]: > 100 µM | TGI [28]: > 100 µM | TGI [29]: 46.8 µM | TGI [30]: 87.2 µM | TGI [31]: > 100 µM | TGI [32]: > 100 µM | TGI [33]: > 100 µM | TGI [34]: > 100 µM | TGI [35]: > 100 µM | TGI [36]: > 100 µM | TGI [37]: > 100 µM | TGI [38]: > 100 µM | TGI [39]: > 100 µM | TGI [40]: 43.6 µM | TGI [41]: > 100 µM | TGI [42]: > 100 µM | TGI [43]: > 100 µM | TGI [44]: > 100 µM | TGI [45]: > 100 µM | TGI [46]: > 100 µM | TGI [47]: 80.1 µM | TGI [48]: > 100 µM

C[C@@]1(Br)C[C@@](C)(Cl)[C@@H](Br)CC1/C=C/Cl (stereo partly drawn)
TGI [1]: 30.2 µM | TGI [3]: 61.7 µM | TGI [4]: 32 µM | TGI [49]: 36 µM | TGI [6]: 27.7 µM | TGI [7]: 29 µM | TGI [10]: > 100 µM | TGI [11]: 22.9 µM | TGI [12]: > 100 µM | TGI [13]: 30.7 µM | TGI [15]: 30.6 µM | TGI [16]: 29.6 µM | TGI [17]: 86.1 µM | TGI [18]: > 100 µM | TGI [19]: 29.6 µM | TGI [50]: 31.4 µM | TGI [20]: 33.2 µM | TGI [22]: 31.7 µM | TGI [23]: 36.2 µM | TGI [24]: 39.2 µM | TGI [25]: 29.7 µM | TGI [26]: 33.8 µM | TGI [51]: 22.8 µM | TGI [27]: > 100 µM | TGI [28]: > 100 µM | TGI [30]: 25.8 µM | TGI [31]: 28.4 µM | TGI [32]: > 100 µM | TGI [33]: 29.1 µM | TGI [52]: 29.5 µM | TGI [34]: 29.3 µM | TGI [35]: 73.7 µM | TGI [53]: 23 µM | TGI [37]: 27.4 µM | TGI [54]: 31 µM | TGI [38]: 33.2 µM | TGI [39]: 53.7 µM | TGI [40]: 26.4 µM | TGI [41]: 37 µM | TGI [55]: 28.2 µM | TGI [42]: 45.3 µM | TGI [56]: 25.4 µM | TGI [43]: 41 µM | TGI [44]: 91.8 µM | TGI [57]: 38 µM | TGI [45]: 42.6 µM | TGI [46]: 37.3 µM | TGI [48]: 37.4 µM

C=Cc1nc2nnc(CCCCCCCCc3nnc4nc(C=C)[nH]n34)n2[nH]1
TGI [1]: > 100 µM | TGI [2]: > 100 µM | TGI [3]: > 100 µM | TGI [4]: > 100 µM | TGI [49]: > 100 µM | TGI [5]: > 100 µM | TGI [6]: > 100 µM | TGI [7]: > 100 µM | TGI [8]: > 100 µM | TGI [9]: > 100 µM | TGI [10]: > 100 µM | TGI [11]: > 100 µM | TGI [12]: > 100 µM | TGI [58]: > 100 µM | TGI [13]: > 100 µM | TGI [16]: > 100 µM | TGI [17]: > 100 µM | TGI [18]: > 100 µM | TGI [19]: > 100 µM | TGI [50]: > 100 µM | TGI [20]: > 100 µM | TGI [21]: > 100 µM | TGI [22]: > 100 µM | TGI [23]: > 100 µM | TGI [24]: > 100 µM | TGI [25]: > 100 µM | TGI [26]: > 100 µM | TGI [51]: > 100 µM | TGI [27]: > 100 µM | TGI [28]: > 100 µM | TGI [30]: > 100 µM | TGI [31]: > 100 µM | TGI [32]: > 100 µM | TGI [33]: > 100 µM | TGI [52]: > 100 µM | TGI [34]: > 100 µM | TGI [36]: > 100 µM | TGI [53]: > 100 µM | TGI [37]: > 100 µM | TGI [54]: > 100 µM | TGI [38]: > 100 µM | TGI [39]: > 100 µM | TGI [40]: > 100 µM | TGI [41]: > 100 µM | TGI [55]: > 100 µM | TGI [42]: > 100 µM | TGI [56]: > 100 µM | TGI [44]: > 100 µM | TGI [57]: > 100 µM | TGI [45]: > 100 µM | TGI [46]: > 100 µM | TGI [48]: > 100 µM
